Legend:
Tetrahymena pyriformis = experiment: 48 h IGC50 (-log10 mol/L); higher = more toxic
Pimephales promelas = experiment: 96 h LC50 (-log10 mol/L); higher = more toxic

| SMILES | 48 h IGC50 (-log10 mol/L) (Tetrahymena pyriformis) | 96 h LC50 (-log10 mol/L) (Pimephales promelas) |
| --- | --- | --- |
| CC(=O)c1ccc(Cl)c(Cl)c1Cl | 4.34 | 5.05 |
| NC(=O)c1ccccc1N | 2.13 | 2.54 |
| N#Cc1ccc([N+](=O)[O-])cc1 | 3.57 | 3.78 |
| CC(=O)OC(C)(C)C | 1.51 | 2.55 |
| Cc1cccc(O)c1[N+](=O)[O-] | 3.61 | 3.52 |
| CCCCC=O | 2.98 | 3.83 |
| COC(=O)c1ccc([N+](=O)[O-])cc1 | 3.39 | 3.88 |
| CC(C)(CC(=O)O)CC(=O)O | 2.34 | 1.05 |
| O=[N+]([O-])c1ncccc1O | 3.87 | 2.92 |
| NCCN1CCNCC1 | 2.21 | 1.77 |
| CC(=O)c1ccccc1 | 2.54 | 2.87 |
| Oc1ccc(Oc2ccccc2)cc1 | 4.36 | 4.58 |
| O=Cc1cc(O)ccc1[N+](=O)[O-] | 3.33 | 3.6 |
| C=COC(C)=O | 2.14 | 3.57 |
| O=Cc1cccnc1 | 2.87 | 3.81 |
| CCCCCCCCc1ccc(N)cc1 | 5.43 | 6.23 |
| O=Cc1ccc(Cl)cc1Cl | 4.04 | 4.99 |
| C#CC(C)(C)O | 1.69 | 1.41 |
| CCOC(=O)c1ccccc1 | 2.99 | 4.25 |

| SMILES | 48 h IGC50 (-log10 mol/L) (Tetrahymena pyriformis) | 96 h LC50 (-log10 mol/L) (Pimephales promelas) |
| --- | --- | --- |
| Nc1ccc(F)cc1 | 3.59 | 3.82 |
| NC(=O)c1ccccc1O | 2.76 | 3.13 |
| CC(=O)c1ccncc1 | 2.13 | 2.86 |
| N#Cc1cc(Cl)ccc1N | 3.44 | 3.73 |
| CC(=O)C(C)C | 1.83 | 2 |
| CN(C)c1ccc(/C=C/C=O)cc1 | 3.52 | 4.47 |
| O=Cc1ccc(Oc2ccccc2)cc1 | 4.26 | 4.63 |
| O=Cc1ccc(O)cc1O | 3.52 | 4.02 |
| CCC(C)N (centres undefined) | 2.33 | 2.42 |
| O=[N+]([O-])c1cccc(Cl)c1 | 3.73 | 3.93 |
| OCCCc1cccnc1 | 2.16 | 2.96 |
| Cc1ccc([N+](=O)[O-])c(O)c1 | 3.59 | 3.51 |
| C=CC(=O)OCC(C)O (centres undefined) | 3.65 | 4.59 |
| CCCCOC(=O)CCCCC(=O)OCCCC | 3.79 | 4.85 |
| CC(=O)CC(C)C | 1.79 | 2.27 |
| CCCCCC(=O)O | 2.79 | 2.84 |
| c1ccc2ncccc2c1 | 3.09 | 3.45 |
| O=Cc1ccc([N+](=O)[O-])cc1 | 3.2 | 4.17 |

— EPA's aquatic toxicity sets
